Experimental data reported in publication PMC12356538, “Targeting the SARS-CoV‑2 RNA Translation Initiation Element SL1 by Molecules of Low Molecular Weight” (Journal of the American Chemical Society, 2025).
Entries after “also recorded” stand apart in the source; their conditions may differ. Like-named read-outs stand apart in the source and are kept apart here.

Tests used:
SL1 RNA = experiment: RNA-detected NMR binding site mapping (2D-1H,1H-TOCSY and 1D-1H); parameters: species or system SARS-CoV-2
SL1 wt RNA = experiment: NMR-based KD estimation, ligand-detected 1D-1H titration; type: binding, SARS-CoV-2
[1] = pH 6.2
[2] = tested on: SL1 Δbulge-Nanoluciferase mRNA; type: biochemical, SARS-CoV-2
[3] = tested on: SL1 RNA labeled with 2AP at position A27; experiment: 2-Aminopurine fluorescence binding assay; parameters: species or system SARS-CoV-2; conditions: 0.5 μM 2AP-SL1, compound 0-400 μM, 25 °C, pH 6.2
[4] = tested on: SARS-CoV-2 SL1 RNA (SL1 wt); type: binding
[5] = tested on: SL1 (wt)-Nanoluciferase mRNA; type: biochemical, SARS-CoV-2
SL1 Δbulge RNA = type: binding, SARS-CoV-2
[6] = tested on: β-Globin-Nanoluciferase mRNA; experiment: Cell-free translation assay in rabbit reticulocyte lysate, Nanoluciferase readout; type: biochemical; conditions: 0.2 μM mRNA, 2 μM compound
[7] = 2D TOCSY, RNA 150 μM, compound 1 mM, 298 K

In the case of `COc1ccc2nc(NC(=O)CN(C)C)sc2c1` [A.2], the “binding site / selectivity for the bulge from CSP and LB mapping, in words” value (SL1 RNA) is reported as “bound the bulge less selectively”, the “1H,1H CSPs [ppm] C16H5-H6” value (SL1 RNA; [7]) is reported as 0.0166 ppm and the “1H,1H CSPs [ppm] C19H5-H6” value (SL1 RNA; [7]) is reported as 0.0190 ppm. For the same molecule, the “1H,1H CSPs [ppm] C20H5-H6” value (SL1 RNA; [7]) was 0.0143 ppm, the “1H,1H CSPs [ppm] C21H5-H6” value (SL1 RNA; [7]) was 0.0230 ppm and the “1H,1H CSPs [ppm] C28H5-H6” value (SL1 RNA; [7]) was 0.0813 ppm. The “1H,1H CSPs [ppm] C33H5-H6” value (SL1 RNA; [7]) was 0.0085 ppm, the “1H,1H CSPs [ppm] C34H5-H6” value (SL1 RNA; [7]) was 0.0081 ppm and the “1H,1H CSPs [ppm] U9H5-H6” value (SL1 RNA; [7]) was 0.0247 ppm. For the same molecule, the “1H,1H CSPs [ppm] U10H5-H6” value (SL1 RNA; [7]) was 0.0231 ppm, the “1H,1H CSPs [ppm] U11H5-H6” value (SL1 RNA; [7]) was 0.0462 ppm and the “1H,1H CSPs [ppm] U13H5-H6” value (SL1 RNA; [7]) was 0.0110 ppm. For the same molecule, the “1H,1H CSPs [ppm] U17H5-H6” value (SL1 RNA; [7]) was 0.0143 ppm, the “1H,1H CSPs [ppm] U18H5-H6” value (SL1 RNA; [7]) was 0.0071 ppm and the “1H,1H CSPs [ppm] U25H5-H6” value (SL1 RNA; [7]) was 0.0361 ppm. For the same molecule, the “1H CSPs [ppm] A12H2” value (SL1 RNA; RNA-detected 1D-1H) was 0.1420 ppm, the “1H CSPs [ppm] A29H2” value (SL1 RNA; RNA-detected 1D-1H) was 0.0190 ppm and the Kd (SL1 wt RNA; Suppl. Table 7, ligand constant at 100, SL1 wt RNA concentration 0-250, read-out: KDest) was 144 µM. For the same molecule, the Kd (SL1 wt RNA; ligand 100 μM, SL1 RNA 0 to 200 or 250 μM, 298 K, 600 MHz, pH 6.2, read-out: KD est) was 144 ± 31 µM, the “solubility, in words” value [1] was “increased solubility” and the “effect on translation of SL1 Δbulge mRNA, in words” value [2] was “increased translation efficiency; also recorded: about half as pronounced as that for SL1 wt”. For the same molecule, the “affinity trend compared to lead A” value [3] was “increased affinity”, the wLOGSY factor ([4]; 10 μM SL1 wt, 200 μM ligand, pH 6.2) was 0.72 and the “T2 reduction [%]” value ([4]; CPMG 100 vs 5 ms, 10 μM SL1 wt, 200 μM ligand, pH 6.2) was 79.26%. For the same molecule, the Rank ([4]; FBS ranking from summed ranks of CSP, wLOGSY and T2 results, SL1 wt) was 30, the “Normalized FBS score” value ([4]; SL1 wt) was 0.81 and the “1 - normalized FBS score” value ([4]; SL1 wt, 0 lowest, 1 highest score) was 0.19. The FBS score ([4]; SL1 wt, radar chart values) was 30, the “CSP [Hz]” value ([4]; ligand 1H CSP, 10 μM SL1 wt, 200 μM ligand, [RNA]:[ligand] 1:20, pH 6.2) was 12.23 Hz and the “Normalized inhibition rate (normalized activity score)” value [5] was 0.73. For the same molecule, the “SL1 wt inhibition rate [%]” value [5] was 36.23%, the “effect on translation of SL1 wt mRNA, in words” value [5] was “significant and selective inhibition; also recorded: highest inhibition efficiency” and the “time-resolved SL1-driven translation, in words” value [5] was “more subtle temporal effects”. For the same molecule, the “CSP [Hz]” value (SL1 Δbulge RNA) was 5.52 Hz, the “Normalized abs. CSP SL1 wt - CSP SL1 Δbulge (normalized selectivity score)” value (SL1 Δbulge RNA) was 1.00 and the Rank (SL1 Δbulge RNA) was 5. The “T2 reduction [%]” value (SL1 Δbulge RNA) was 67.46%, the “abs. CSP SL1 wt - CSP SL1 Δbulge” value (SL1 Δbulge RNA) was 6.71 and the wLOGSY factor (SL1 Δbulge RNA) was 0.00. For the same molecule, the “effect on translation of β-globin mRNA, in words” value [6] was “increased translation efficiency; also recorded: boost”.
